Data on 2 compounds can be found in patent publication US20120196918A1, “PREVENTING ISLET INFLAMMATION AND DYSFUNCTION AND MAINTAINING PROPER GLUCOSE LEVELS BY CONTROLLING eIF5A AND ITS HYPUSINATION” (priority 2009, published 2012).

Data set [1] has as its system iNOS. Briefly: Cytokine-induced iNOS protein in islets from siRNA-injected mice (immunoblot). The class given is cell-based, mouse. The settings on record: cytokines 4 h. On the procedure:
Because nitric oxide is known to be a primary effector of islet dysfunction in response to cytokine-induced stress, the transcription of the gene encoding iNOS (Nos2) was also examined.
Cytokine and inhibitor incubation studies: For cytokine incubation assays, a 1000× cocktail of cytokines containing 5 μg/ml IL1β, 10 μg/ml TNFα, and 100 μg/ml IFNγ (all prepared in 0.1% BSA in Tris-buffered saline) was applied at 1× final concentration to groups of 50 islets or 1×10^6 INS-1 (832/13) cells for a total of 4 h at 37° C. […]
(§1) Immunoblot and nitrite and iNOS assays: Whole cell extracts were resolved by electrophoresis on a 4-20% SDS-polyacrylamide gel, followed by immunoblot using anti-eIF5A1, anti-eIF5A2, anti-iNOS, anti-GFP, or anti-actin primary antibodies and fluorophore-labeled secondary antibodies. Immunoblots were visualized using the Li-Cor® Odyssey® system (Li-Cor Biosciences) and quantitated by scanning fluorometry using Odyssey Imaging v. […] Nitrite was quantitated by measuring nitric oxide-derived nitrite from INS-1 cell culture medium using the Griess reagent (Promega) according to the manufacturer's recommendations. iNOS activity was measured using a commercially available kit (Cayman).

The test system of data set [2] is iNOS. As to the kind of experiment: Cytokine-induced iNOS protein in INS-1 cells (immunoblot). The class given is cell-based, rat.
Description: eIF5A1 and eIF5A2 are the only proteins known to contain the unique amino acid hypusine at position 50. Hypusine is formed as a posttranslational modification of residue Lys50 in a reaction requiring spermidine and catalyzed by the sequential actions of the enzymes deoxyhypusine synthase (DHS) and deoxyhypusine hydroxylase (DOHH) (Chen, K Y, and Liu, A Y. Biochemistry and function of hypusine formation on eukaryotic initiation factor 5A. Biol Signals. 1997; 6(3):105-109). […] To further investigate the mechanism of eIF5A-regulated translation of Nos2, studies were performed following overnight incubation of cells with mimosine (an inhibitor of DOHH) and GC7 (an inhibitor of DHS). […] Similar data using GC7 were obtained in primary mouse islets (data not shown) and in human islets (FIGS. 5F and 5G).
(§2) Because GC7 is known to be inactivated by the action amine oxidases, which are abundant in serum, typical studies with GC7 in the literature have used aminoguanidine to inhibit amine oxidases (16). […] To rule out possible adverse effects of GC7 on cell viability, quantitative 2 color fluorescence analysis of live (calcein-AM-positive) and dead (ethidium homodimer-1-positive) cells were performed using fluorescence cytometry.
Cytokine and inhibitor incubation studies: For cytokine incubation assays, a 1000× cocktail of cytokines containing 5 μg/ml IL1β, 10 μg/ml TNFα, and 100 μg/ml IFNγ (all prepared in 0.1% BSA in Tris-buffered saline) was applied at 1× final concentration to groups of 50 islets or 1×10^6 INS-1 (832/13) cells for a total of 4 h at 37° C. For GC7 incubation studies, GC7 was prepared at a stock concentration of 125 mM in 10 mM acetic acid and applied to cultures of 50 islets or 1×10^6 INS-1 cells to obtain the final concentrations indicted in the figures. Where needed, GC7 was protected from amine oxidases in serum by addition of 1 mM aminoguanidine (Sigma). Cells were incubated with GC7 overnight (˜16 h) at 37° C. prior to analysis. Cells were exposed to Leptomycin B (Cayman Chemicals) for 3 hours; leptomycin B was prepared at a 1000× stock concentration of 20 μg/ml in ethanol.
as §1

The test system of another data set is eIF5A. Briefly: eIF5A nuclear-to-cytoplasmic translocation in INS-1 cells (immunofluorescence). The class given is cell-based, rat. The settings on record: pretreatment, then cytokines 4 h. On the procedure:
Given the striking retention of Nos2 transcripts in the absence of eIF5A-Hyp, it was of interest to determine whether the intracellular distribution of eIF5A accounts for its effect on Nos2 nucleo-cytoplasmic shuttling. Immunofluorescence of eIF5A in fixed INS-1 cells, were thus performed. […] Upon treatment of cells with cytokines, there was a shift in the eIF5A distribution pattern from the nucleus to the cytoplasm.
Cytokine and inhibitor incubation studies: For cytokine incubation assays, a 1000× cocktail of cytokines containing 5 μg/ml IL1β, 10 μg/ml TNFα, and 100 μg/ml IFNγ (all prepared in 0.1% BSA in Tris-buffered saline) was applied at 1× final concentration to groups of 50 islets or 1×10^6 INS-1 (832/13) cells for a total of 4 h at 37° C. For GC7 incubation studies, GC7 was prepared at a stock concentration of 125 mM in 10 mM acetic acid and applied to cultures of 50 islets or 1×10^6 INS-1 cells to obtain the final concentrations indicted in the figures. […]
Immunofluorescence: Immunofluorescence of INS-1 cells proceeded essentially as described previously (71), using primary antibodies to eIF5A1 and secondary anti-mouse Alexa-488-conjugated antibody (Invitrogen), or by direct visualization of GFP fusion proteins at 488 nm. […] Quantitation of cytoplasic-to-nuclear ratios of eIF5A staining was performed using Axio-Vision Software, v. […]

Data set [3] relates to iNOS. Briefly: iNOS activity assay (commercial kit). The class given is biochemical. The settings on record: GC7 125 μM. On the procedure: as §2
Immunoblot and nitrite and iNOS assays: Whole cell extracts were resolved by electrophoresis on a 4-20% SDS-polyacrylamide gel, followed by immunoblot using anti-eIF5A1, anti-eIF5A2, anti-iNOS, anti-GFP, or anti-actin primary antibodies and fluorophore-labeled secondary antibodies. Immunoblots were visualized using the Li-Cor® Odyssey® system (Li-Cor Biosciences) and quantitated by scanning fluorometry using Odyssey Imaging v. 3.0 software (Li-Cor Biosciences). Nitrite was quantitated by measuring nitric oxide-derived nitrite from INS-1 cell culture medium using the Griess reagent (Promega) according to the manufacturer's recommendations. iNOS activity was measured using a commercially available kit (Cayman).

The next data set relates to INS-1 cells. As to the kind of experiment: Live/dead two-colour fluorescence cytometry of INS-1 cells. The class given is cell-based, rat. On the procedure: as §2
For flow cytometry studies, INS-1 cells (serum starved or pretreated with GC7 as indicated in the figures) were stained with calcein-AM and ethidium homodimer 1 (Live/Dead® kit, Invitrogen) for 30 minutes, and 30,000 cells/sample were analyzed for green (living cells) and red (dead cells) fluorescence using a FACS Calibur (BD bioscience) instrument. For cell cycle analysis, 10^6 cells were washed in PBS and fixed in ice-cold 70% ethanol for 1 hour. After washing in PBS, cells were re-suspended in Guava cell cycle reagent (Millipore) and incubated at room temperature for 30 minutes. Intercalation of propidium iodide into cellular DNA was quantitated using a FACS Calibur instrument and the data analyzed for cell cycle status using Modfit software.

Data set [4] concerns eIF5A-Hyp binding to mRNA. Briefly: RNA immunoprecipitation with eIF5A antibody in cytokine-treated INS-1 cells. The class given is cell-based, rat. To be noted: GC7 overnight, cytokines 4 h. An excerpt: The retention of both Nos2 transcripts and eIF5A in the nucleus upon inhibition of hypusination is consistent with a close relationship between the two molecules, such that eIF5A may serve to chaperone Nos2 transcripts from the nucleus to the cytoplasm in response to cytokine stimulation. eIF5A-Hyp binds to RNAs that contain the consensus sequence 5′-AAAUGU-3′ (47), which is present in the Nos2 mRNA. To determine if eIF5A-Hyp binds Nos2 mRNA, RNA immunoprecipitation assays using INS-1 cell total RNA were performed. […] In contrast, no co-precipitation of other NFkB target and non-target genes was observed.
RNA immunoprecipitation (RIP) assays: RIP assays from 1×10^7 formaldehyde cross-linked INS-1 cells were performed as described (75). Isotype-matched antibodies against eIF5A and the FLAG-M2 epitope (for control immunoprecipitations) were used at a final dilution of 1:100. Immunoprecipitated RNA was reversed transcribed and subjected to quantitative PCR amplification for selected genes as described above. All data represent the average of triplicate determinations from at least 3 independent RIP assays.

As for “5′-AACGGAAUGACUUCCAGCUGA-3′ (siSTABLE modification, further chemistry not given here) [si-eIF5A]”, in the data set with iNOS [1], the “induction of iNOS protein in islets” value is given as “significantly attenuated”.

For the compound `NCCCCCCCN=C(N)N` [GC7], in the data set with iNOS [2] (co-incubation with 1 mM aminoguanidine), the “concentration at which inhibition of iNOS was observed” value was roughly 3 µM. In addition, the “iNOS protein after cytokines” value in the data set on iNOS [2] (increasing inhibitor concentrations overnight, cytokines 4 h) is given as “dose-dependent attenuation”. In addition, in the data set with iNOS [2] (without aminoguanidine), the “concentration required to substantially block iNOS” value is greater than 30 µM. Moreover, the “cytokine-induced translocation of eIF5A” value with eIF5A is recorded as “failed to induce the nuclear to cytoplasmic translocation of eIF5A”. The “inhibition of iNOS activity” value in the data set on iNOS [3] is “does not appear to inhibit iNOS activity”. The “percentage of dead cells” value in the data set with INS-1 cells (125 μM GC7, 3 days exposure) stood at 70%. The “percentage of dead INS-1 cells” value with INS-1 cells (GC7 0 to 125 μM, overnight exposure, unaffected by concentration) is reported as 4-5%. The “co-precipitation of mRNA with eIF5A antibody” value in data set [4] is on record as “no co-precipitation of any mRNA species”.
